Test results: patent US7090790B2, “Chemiluminescent composition producing white light” (priority 2004, dated 2006)

Legend:
[1] = Solubility in chloroform at 20° C., Formula 2 vs Formula 3; format: physicochemical; details: in 100 mL of chloroform at 20° C.
[2] = Intensity of white light, Experimental Example 2 (−25° F.); details: low temperature
Protocol: The oxalate solutions and the activator solutions prepared in Examples 1 and 2, and Comparative Examples 1 and 2 were mixed in a volume ratio of 3:1 to chemiluminescent compositions, respectively.
The procedure was repeated in the same manner as in Experimental Example 1, except that the temperature of the thermostat was set to −25° F.

## CCCCCCCCCCCCN1C(=O)c2cc(Cl)c3c4c(Cl)cc5c6c(cc(Cl)c(c7c(Cl)cc(c2c37)C1=O)c64)C(=O)N(CCCCCCCCCCCC)C5=O [Dodecyl (Formula 3), N,N′-didodecyl-1,6,7,12-tetrachloroperylene-3,4,9,10-dicarboximide]
[1]
  Solubility, 1,6,7,12-tetrahaloperylenedicarboximide of Formula 3 (X is Cl): 65 g
[2]
  precipitation of the dye in the chemiluminescent composition: no precipitates were formed even at low temperature

## CCCCCCN1C(=O)c2cc(Cl)c3c4c(Cl)cc5c6c(cc(Cl)c(c7c(Cl)cc(c2c37)C1=O)c64)C(=O)N(CCCCCC)C5=O [Hexyl (Formula 3), N,N′-dihexyl-1,6,7,12-tetrachloroperylene-3,4,9,10-dicarboximide]
[1]
  Solubility, 1,6,7,12-tetrahaloperylenedicarboximide of Formula 3 (X is Cl): 72 g
